Assay results from PMC10012049, “Synthesis, α-mannosidase inhibition studies and molecular modeling of 1,4-imino-ᴅ-lyxitols and their C-5-altered N-arylalkyl derivatives” (Beilstein Journal of Organic Chemistry, 2023).
Where two headings read alike, the source gives them in different places. Marks after values point to notes of the source that are not given here.

Experiments:
[1] = target: T1, GMIIb (Golgi α-mannosidase) (Drosophila melanogaster, UniProt Q9VF33); experiment: α-mannosidase inhibition assay with pNP-Man substrate, GMIIb; assay type: biochemical; conditions: for Ki: Dixon plots, pNP-Man 0.5-4 mM, pH 6.0
From the text: (§1) The enzymes screened included two Golgi types (GMIIb and AMAN-2) and two lysosomal types (LManII and JBMan) (Table 1).
(§2) Recombinant soluble forms of Drosophila melanogaster Golgi (GMIIb) and lysosomal (LManII) α-mannosidases as well as Caenorhabditis elegans Golgi α-mannosidase AMAN-2 were produced in Pichia pastoris and enriched by ammonium sulfate precipitation or nickel chelation chromatography as previously described. The α-mannosidase from Canavalia ensiformis (JBMan) was purchased from Sigma. […]
(§3) GMIIb was assayed in the […]
(§4) presence of 0.5 mM CoCl2.
(§5) The lyophilized derivatives used in the assay were dissolved in DMSO to the final concentration 50 mM and further diluted to a desired concentration in water. These derivatives were preincubated with the enzyme in the buffer for 5 min at rt and the reaction was started by addition of the substrate. The reactions were terminated with two volumes (0.1 mL) of 0.5 M sodium carbonate and the production of p-nitrophenol was measured at 405 nm using a multimode reader Mithras LB943 (Berthold Technologies). The average or representative result of three independent experiments made in duplicate is presented.

[2] = target: T2, AMAN-2 (Golgi α-mannosidase II) (Caenorhabditis elegans, UniProt Q2PJ74); experiment: α-mannosidase inhibition assay with pNP-Man substrate, AMAN-2; assay type: biochemical; conditions: for Selectivity index, SI [Ki (JBMan)/Ki (AMAN-2)]: ratio of Ki values; for SI [IC50 (JBMan)/IC50 (AMAN-2)]: ratio of IC50 values; for times more potent toward AMAN-2 than DIM: relative to DIM
From the text: as §1
Recombinant soluble forms of Drosophila melanogaster Golgi (GMIIb) and lysosomal (LManII) α-mannosidases as well as Caenorhabditis elegans Golgi α-mannosidase AMAN-2 were produced in Pichia pastoris and enriched by ammonium sulfate precipitation or nickel chelation chromatography as previously described. The α-mannosidase from Canavalia ensiformis (JBMan) was purchased from Sigma. The mannosidase activity of these enzyme preparations were measured using p-nitrophenyl α -D-mannopyranoside ( pNP-Man; Sigma; 100 mM stock in dimethylsulfoxide) as a substrate at 2 mM final concentration in 50 mM acetate buffer of the relevant previously defined optimal pH, GMIIb and AMAN -2 at pH 6.0, LManII at pH 5.2 , and JBMan at pH 5.0) and 0.5 μL of the enzyme (0.05 µg of protein for JBMan), in a total volume of 50 μL for 1–2 h at 37 °C. GMIIb was assayed in the presence of 0.5 mM CoCl2.
as §5

[3] = target: T3, JBMan (Jack bean α-mannosidase) (Canavalia ensiformis, UniProt C0HJB3); experiment: α-mannosidase inhibition assay with pNP-Man substrate, JBMan; assay type: biochemical; conditions: for IC50: 2 mM pNP-Man, pH 5.0, 37 °C; for Ki: Dixon plots, pNP-Man 0.5-4 mM, pH 5.0
T3 construct: purchased Sigma
T3 sequence (C0HJB3 1-981): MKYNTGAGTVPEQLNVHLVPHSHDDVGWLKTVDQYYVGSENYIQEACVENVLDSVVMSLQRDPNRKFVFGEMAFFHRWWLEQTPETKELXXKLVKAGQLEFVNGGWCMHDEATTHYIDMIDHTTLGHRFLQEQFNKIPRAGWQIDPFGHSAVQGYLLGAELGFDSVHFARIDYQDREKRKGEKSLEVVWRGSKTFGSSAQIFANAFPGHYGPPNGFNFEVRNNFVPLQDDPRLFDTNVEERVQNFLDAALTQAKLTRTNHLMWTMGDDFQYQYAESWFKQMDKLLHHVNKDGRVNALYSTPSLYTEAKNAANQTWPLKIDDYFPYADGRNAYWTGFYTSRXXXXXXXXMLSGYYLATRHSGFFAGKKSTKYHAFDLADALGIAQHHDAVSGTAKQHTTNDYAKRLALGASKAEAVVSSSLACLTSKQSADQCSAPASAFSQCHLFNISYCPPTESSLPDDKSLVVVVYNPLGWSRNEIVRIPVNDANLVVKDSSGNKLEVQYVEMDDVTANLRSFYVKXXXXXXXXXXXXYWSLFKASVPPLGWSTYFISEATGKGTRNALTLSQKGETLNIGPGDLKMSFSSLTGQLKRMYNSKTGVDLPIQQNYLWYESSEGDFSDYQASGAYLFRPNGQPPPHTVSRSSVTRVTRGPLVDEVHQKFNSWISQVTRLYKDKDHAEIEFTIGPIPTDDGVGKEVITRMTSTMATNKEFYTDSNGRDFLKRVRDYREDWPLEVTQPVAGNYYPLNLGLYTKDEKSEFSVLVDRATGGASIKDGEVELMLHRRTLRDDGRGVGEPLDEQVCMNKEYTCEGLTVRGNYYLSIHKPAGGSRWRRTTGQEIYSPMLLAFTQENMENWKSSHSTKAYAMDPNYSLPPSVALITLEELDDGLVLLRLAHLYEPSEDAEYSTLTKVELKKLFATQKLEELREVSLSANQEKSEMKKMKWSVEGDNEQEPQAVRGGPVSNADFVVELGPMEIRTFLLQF
From the text: as §1, §2, §3, §4, §5

[4] = target: T4, LManII (lysosomal α-mannosidase) (Drosophila melanogaster, UniProt Q9VKV1); experiment: α-mannosidase inhibition assay with pNP-Man substrate, LManII; assay type: biochemical; conditions: for Ki: Dixon plots, pNP-Man 0.5-4 mM, pH 5.2
From the text: as §1, §2, §3, §4, §5

[5] = target: T2, AMAN-2 (Golgi α-mannosidase II); experiment: α-mannosidase inhibition assay with pNP-Man substrate, AMAN-2; assay type: biochemical; conditions: Dixon plots, pNP-Man 0.5-4 mM, pH 6.0
[6] = target: T1, GMIIb (Golgi α-mannosidase); conditions: ref Kóňa et al. [22]; cited from earlier work
[7] = target: T2, AMAN-2 (Golgi α-mannosidase II); conditions: cited from earlier work; for IC50: ref Kóňa et al. [22]
[8] = target: T3, JBMan (Jack bean α-mannosidase); conditions: ref Kóňa et al. [22]; cited from earlier work
[9] = target: T4, LManII (lysosomal α-mannosidase); conditions: ref Kóňa et al. [22]; cited from earlier work
[10] = 2 mM pNP-Man, pH 6.0, 0.5 mM CoCl2, 37 °C, read-out: IC50 GMIIb
[11] = 2 mM pNP-Man, pH 6.0, 37 °C, read-out: IC50 AMAN-2
[12] = 2 mM pNP-Man, pH 5.2, 37 °C, read-out: IC50 LManII

T4 sequence (Q9VKV1 entry or part of it): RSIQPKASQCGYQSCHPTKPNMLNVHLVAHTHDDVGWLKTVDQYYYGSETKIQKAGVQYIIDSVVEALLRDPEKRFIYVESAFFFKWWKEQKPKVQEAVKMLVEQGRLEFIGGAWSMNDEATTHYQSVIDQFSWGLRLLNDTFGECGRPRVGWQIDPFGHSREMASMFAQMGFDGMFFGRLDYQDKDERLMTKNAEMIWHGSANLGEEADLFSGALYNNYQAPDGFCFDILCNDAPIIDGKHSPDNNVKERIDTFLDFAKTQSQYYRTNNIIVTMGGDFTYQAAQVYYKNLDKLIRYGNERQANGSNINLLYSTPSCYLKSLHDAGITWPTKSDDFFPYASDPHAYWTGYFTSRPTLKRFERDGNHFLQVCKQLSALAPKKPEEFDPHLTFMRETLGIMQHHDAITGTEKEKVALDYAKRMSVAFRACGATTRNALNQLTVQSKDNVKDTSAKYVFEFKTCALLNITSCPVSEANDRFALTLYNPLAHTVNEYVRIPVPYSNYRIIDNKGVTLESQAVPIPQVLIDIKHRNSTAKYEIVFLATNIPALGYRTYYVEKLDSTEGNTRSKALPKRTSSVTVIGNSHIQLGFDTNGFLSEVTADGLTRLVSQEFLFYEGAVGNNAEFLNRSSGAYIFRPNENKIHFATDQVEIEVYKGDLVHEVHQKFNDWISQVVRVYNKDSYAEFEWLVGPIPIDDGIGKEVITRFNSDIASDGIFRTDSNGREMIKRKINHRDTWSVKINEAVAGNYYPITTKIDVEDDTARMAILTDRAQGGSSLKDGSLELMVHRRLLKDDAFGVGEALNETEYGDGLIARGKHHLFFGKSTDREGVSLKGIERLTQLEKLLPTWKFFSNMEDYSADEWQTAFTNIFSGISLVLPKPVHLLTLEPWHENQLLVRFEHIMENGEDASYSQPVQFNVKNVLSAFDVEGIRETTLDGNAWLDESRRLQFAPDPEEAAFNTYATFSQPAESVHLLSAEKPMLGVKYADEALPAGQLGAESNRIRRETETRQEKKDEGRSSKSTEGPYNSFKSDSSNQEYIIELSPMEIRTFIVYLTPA
T1 sequence (Q9VF33 entry or part of it): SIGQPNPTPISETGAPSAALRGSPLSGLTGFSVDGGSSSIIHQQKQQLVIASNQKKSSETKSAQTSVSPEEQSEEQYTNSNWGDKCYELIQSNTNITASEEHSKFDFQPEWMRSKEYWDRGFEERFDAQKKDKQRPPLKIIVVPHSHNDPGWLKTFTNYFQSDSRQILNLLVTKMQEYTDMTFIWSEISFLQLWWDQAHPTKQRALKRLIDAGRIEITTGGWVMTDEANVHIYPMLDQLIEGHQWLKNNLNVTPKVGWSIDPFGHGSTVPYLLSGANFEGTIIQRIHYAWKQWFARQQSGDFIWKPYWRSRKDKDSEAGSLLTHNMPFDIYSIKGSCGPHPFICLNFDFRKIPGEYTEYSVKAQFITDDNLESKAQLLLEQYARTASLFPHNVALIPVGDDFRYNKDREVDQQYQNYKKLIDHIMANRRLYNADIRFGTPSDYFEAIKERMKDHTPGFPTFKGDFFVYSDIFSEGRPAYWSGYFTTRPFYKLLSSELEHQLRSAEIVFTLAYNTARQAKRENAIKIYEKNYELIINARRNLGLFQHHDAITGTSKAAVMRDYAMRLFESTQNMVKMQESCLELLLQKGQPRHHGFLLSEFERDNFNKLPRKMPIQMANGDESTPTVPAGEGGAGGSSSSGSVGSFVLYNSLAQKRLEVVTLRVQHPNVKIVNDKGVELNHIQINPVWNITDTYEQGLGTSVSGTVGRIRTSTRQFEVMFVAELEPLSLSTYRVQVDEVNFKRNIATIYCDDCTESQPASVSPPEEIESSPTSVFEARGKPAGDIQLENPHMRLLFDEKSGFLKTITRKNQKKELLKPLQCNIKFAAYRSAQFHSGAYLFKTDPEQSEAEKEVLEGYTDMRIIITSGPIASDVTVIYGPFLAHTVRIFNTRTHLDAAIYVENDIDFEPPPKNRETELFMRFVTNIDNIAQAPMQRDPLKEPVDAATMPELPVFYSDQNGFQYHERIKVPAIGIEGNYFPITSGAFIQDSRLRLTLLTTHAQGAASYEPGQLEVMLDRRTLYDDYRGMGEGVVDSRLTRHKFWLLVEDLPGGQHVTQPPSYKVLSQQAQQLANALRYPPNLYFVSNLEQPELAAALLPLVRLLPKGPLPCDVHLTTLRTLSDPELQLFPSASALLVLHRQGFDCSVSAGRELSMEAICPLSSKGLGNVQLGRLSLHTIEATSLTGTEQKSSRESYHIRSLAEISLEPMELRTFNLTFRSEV
T2 sequence (Q2PJ74 entry or part of it): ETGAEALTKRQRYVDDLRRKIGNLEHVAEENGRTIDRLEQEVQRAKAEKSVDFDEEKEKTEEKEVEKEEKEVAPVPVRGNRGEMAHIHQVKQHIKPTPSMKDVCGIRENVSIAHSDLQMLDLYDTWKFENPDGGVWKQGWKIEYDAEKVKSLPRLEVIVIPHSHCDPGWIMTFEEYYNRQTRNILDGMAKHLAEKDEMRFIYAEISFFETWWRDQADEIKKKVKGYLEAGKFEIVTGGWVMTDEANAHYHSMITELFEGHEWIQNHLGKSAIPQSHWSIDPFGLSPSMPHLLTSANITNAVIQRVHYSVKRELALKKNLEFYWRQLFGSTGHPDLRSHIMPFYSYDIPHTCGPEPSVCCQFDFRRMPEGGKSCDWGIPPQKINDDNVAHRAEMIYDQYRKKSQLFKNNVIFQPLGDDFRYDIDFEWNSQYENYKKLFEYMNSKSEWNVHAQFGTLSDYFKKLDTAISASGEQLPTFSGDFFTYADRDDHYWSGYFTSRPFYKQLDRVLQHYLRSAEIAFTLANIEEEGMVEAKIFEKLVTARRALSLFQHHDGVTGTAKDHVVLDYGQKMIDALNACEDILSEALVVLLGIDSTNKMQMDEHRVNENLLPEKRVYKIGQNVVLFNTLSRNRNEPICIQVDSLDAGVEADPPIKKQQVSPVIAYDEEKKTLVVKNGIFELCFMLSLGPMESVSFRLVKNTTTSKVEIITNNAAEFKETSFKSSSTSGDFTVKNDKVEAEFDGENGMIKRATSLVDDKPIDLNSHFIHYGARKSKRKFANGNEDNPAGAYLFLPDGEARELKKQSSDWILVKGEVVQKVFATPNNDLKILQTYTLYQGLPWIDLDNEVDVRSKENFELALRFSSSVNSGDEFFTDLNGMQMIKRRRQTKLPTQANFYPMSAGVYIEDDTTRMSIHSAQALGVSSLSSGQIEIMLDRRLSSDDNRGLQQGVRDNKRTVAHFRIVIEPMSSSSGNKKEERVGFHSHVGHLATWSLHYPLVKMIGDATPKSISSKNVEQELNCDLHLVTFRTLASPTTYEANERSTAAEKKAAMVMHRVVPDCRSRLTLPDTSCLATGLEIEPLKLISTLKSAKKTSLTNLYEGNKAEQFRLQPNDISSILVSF

Compound | IC50 [1, 10] [µM] | IC50 [2, 11] [µM] | IC50 [3] [µM] | IC50 [4, 12] [µM] | Ki [1] [µM] | Ki [5] [µM] | Selectivity index, SI [Ki (JBMan)/Ki (AMAN-2)] [2] | Ki [3] [µM] | Ki [4] [µM] | further results
C[C@H](O)[C@@H]1[C@H](O)[C@H](O)CN1Cc1ccc2ccccc2c1 [compound 19] | 860 ± 140 | 1680 ± 75 | > 4000 | > 4000 |  |  |  |  |  | 
C[C@H]1NC[C@@H](O)[C@H]1O [compound 10] |  |  | 2880 ± 275 |  |  |  |  |  |  | IC50 [1]: 525 ± 25 µM; IC50 [2]: 415 ± 15 µM; IC50 [4]: > 4000 µM
C[C@@H](O)[C@@H]1[C@H](O)[C@H](O)CN1Cc1ccccc1 [compound 26] | 33 ± 3.7 | 115 ± 18 | 298 ± 30 | 505 ± 57 | 16.2 | 58 | 1.4 | 80 | 270 | 
C[C@@H]1[C@H](O)[C@H](O)CN1Cc1ccc(I)cc1 [compound 8] | 205 ± 35 | 385 ± 15 | > 4000 | > 4000 |  |  |  |  |  | 
C[C@H](O)[C@H]1NC[C@@H](O)[C@H]1O [compound 20] | 30 ± 5 | 48 ± 6 | 105 ± 25 | 295 ± 20 |  |  |  |  |  | SI [IC50 (JBMan)/IC50 (AMAN-2)] [2]: 2.2^b
OC[C@H]1NC[C@@H](O)[C@H]1O [compound 30] |  |  |  |  |  |  |  |  |  | IC50 [6]: 3.9 ± 0.1 µM; Ki [7]: 2.3 µM; IC50 [7]: 2.3 ± 0.1 µM; IC50 [8]: 10.5 ± 1.3 µM; SI [IC50 (JBMan)/IC50 (AMAN-2)] [2]: 5^b; IC50 [9]: 30.5 ± 3 µM
C[C@@H]1[C@H](O)[C@H](O)CN1Cc1ccc2ccccc2c1 [compound 9] | 310 ± 22 | 605 ± 35 | > 4000 | > 4000 |  |  |  |  |  | 
C[C@H](O)[C@@H]1[C@H](O)[C@H](O)CN1Cc1ccc(I)cc1 [compound 18] | 170 ± 10 | 205 ± 5 | > 4000 | > 4000 |  |  |  |  |  | 
C[C@@H](O)[C@H]1NC[C@@H](O)[C@H]1O [compound 29, 6-deoxy-DIM] | 0.12 ± 0.02 | 0.24 ± 0.05 | 0.32 ± 0.11 | 0.82 ± 0.19 | 0.065 | 0.19 | 0.6 | 0.12 | 0.38 | times more potent toward AMAN-2 than DIM [2]: ~4 times; times more potent toward AMAN-2 than DIM ([2]; listed as 6-deoxy-DIM): 3.5 times
C[C@@H](O)[C@@H]1[C@H](O)[C@H](O)CN1Cc1ccc(I)cc1 [compound 27] | 13 ± 5.5 | 66 ± 10 | 164 ± 28 | 410 ± 80 | 4.2 | 34 | 2.1 | 73 | 263 | 
C[C@@H]1[C@H](O)[C@H](O)CN1Cc1ccccc1 [compound 7] | 245 ± 35 | 975 ± 25 | > 4000 | > 4000 |  |  |  |  |  | 
N-2-naphthylmethyl 1,4-imino-ᴅ-lyxitol [compound 31] |  |  |  |  |  |  |  |  |  | IC50 [6]: 7.6 ± 1.1 µM; IC50 [7]: 2.4 ± 0.1 µM; IC50 [8]: 1950 ± 250 µM; SI [IC50 (JBMan)/IC50 (AMAN-2)] [2]: 812^b; IC50 [9]: 845 ± 170 µM
OC[C@@H](O)[C@H]1NC[C@@H](O)[C@H]1O [DIM, 1,4-dideoxy-1,4-imino-ᴅ-mannitol, reference compound] | 0.19 ± 0.04 | 0.81 ± 0.03 | 0.72 ± 0.03 | 2.55 ± 0.1 | 0.13 | 0.68 | 0.6 | 0.38 | 1.95 | 
C[C@H](O)[C@@H]1[C@H](O)[C@H](O)CN1Cc1ccccc1 [compound 17] | 335 ± 37 | 990 ± 10 | > 4000 | > 4000 |  |  |  |  |  | 
C[C@@H](O)[C@@H]1[C@H](O)[C@H](O)CN1Cc1ccc2ccccc2c1 [compound 28] | 13.5 ± 5.5 | 22 ± 4 | 78 ± 16 | 118 ± 10 | 5.2 | 18 | 2.4 | 44 | 98 | 
